Consider two compounds from patent publication US9937199B2, “Materials and methods for preventing and treating anastomotic leaks” (THE UNIVERSITY OF CHICAGO, priority 2012, dated 2018).

The subject of test [1] is P. aeruginosa MPAO1-P1. The experiment in a line: Antibiotic resistance of P1 strain. The conditions noted are these: Pseudomonas aeruginosa, MPAO1P1. The test is classed as cell-based.
The subject of test [2] is P. aeruginosa MPAO1-P2. The experiment in a line: Antibiotic resistance of P2 strain. It is filed as cell-based, Pseudomonas aeruginosa. The conditions noted are these: for fold higher resistance of P2 strain compared to P1 strain: P2 vs P1. How it is done:
FIG. 11. Chloramphenicol resistance of P1 and P2 strains. Strains were cultured in TSB containing 250 μg/ml chloramphenicol and grown in 96-well plate (150 μl/well, shaking at 150 rpm, 37° C. Cell density was measured on Plate Reader at OD 600 nm. Values represent the mean of triplicate cultures.

In brackets after ≈: the same amount, converted by molar mass.

As usually defined, the MIC is the smallest concentration in the dilution series that meets the test's criterion for growth inhibition. A higher MIC goes with a need for much substance. On to `CCn1cc(C(=O)O)c(=O)c2cc(F)c(N3CCNCC3)cc21` [norfloxacin], for which the minimal inhibitory concentration (MIC) was determined as 0.38 mg/L (≈ 1.19 µM) in test [1] and 3.8 mg/L (≈ 11.9 µM) in test [2] (Pseudomonas aeruginosa, MPAO1P2, P2 strain). In test [2], the “fold higher resistance of P2 strain compared to P1 strain” value came to 10 fold.
Regarding `O=C(N[C@H](CO)[C@H](O)c1ccc([N+](=O)[O-])cc1)C(Cl)Cl` [chloramphenicol], the “fold higher resistance of P2 strain compared to P1 strain” value in test [2] is on record as “about 6 fold”.
